In PubChem BioAssay (NCI):
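Where inhibition never reached the appropriate level, the endpoint shown equals the highest concentration tested. Otherwise, values were interpolated linearly from a five-concentration, 48-hour dose response in 96-well plates. TGI: total growth inhibition.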

Legend:
Assay in all cases: NCI anticancer screen, dose series, 48 h
LOX IMVI melanoma = system: LOX IMVI melanoma
NCI-H23 lung = system: NCI-H23 lung
IGROV1 ovarian = system: IGROV1 ovarian
MOLT-4 leukemia = system: MOLT-4 leukemia
HS 578T breast = system: HS 578T breast
ACHN renal = system: ACHN renal
M14 melanoma = system: M14 melanoma
KM12 colon = system: KM12 colon
TK-10 renal = system: TK-10 renal
SNB-75 CNS = system: SNB-75 CNS
NCI-H460 lung = system: NCI-H460 lung
CAKI-1 renal = system: CAKI-1 renal
SF-295 CNS = system: SF-295 CNS
OVCAR-3 ovarian = system: OVCAR-3 ovarian
SNB-19 CNS = system: SNB-19 CNS
NCI-H226 lung = system: NCI-H226 lung
K-562 leukemia = system: K-562 leukemia
SK-MEL-28 melanoma = system: SK-MEL-28 melanoma
SK-MEL-5 melanoma = system: SK-MEL-5 melanoma
OVCAR-5 ovarian = system: OVCAR-5 ovarian
SF-268 CNS = system: SF-268 CNS
MDA-MB-231 breast = system: MDA-MB-231 breast
786-0 renal = system: 786-0 renal
U251 CNS = system: U251 CNS
UACC-62 melanoma = system: UACC-62 melanoma
HOP-92 NSCLC = system: HOP-92 NSCLC
OVCAR-8 ovarian = system: OVCAR-8 ovarian
MDA-N = system: MDA-N
EKVX NSCLC = system: EKVX NSCLC
RXF 393 renal = system: RXF 393 renal
OVCAR-4 ovarian = system: OVCAR-4 ovarian
T-47D breast = system: T-47D breast
HOP-62 NSCLC = system: HOP-62 NSCLC
DU-145 prostate = system: DU-145 prostate
HT29 colon = system: HT29 colon
SW-620 colon = system: SW-620 colon
NCI-H522 lung = system: NCI-H522 lung
HCC-2998 colon = system: HCC-2998 colon
CCRF-CEM leukemia = system: CCRF-CEM leukemia
HCT-15 colon = system: HCT-15 colon
A549 NSCLC = system: A549 NSCLC
MALME-3M melanoma = system: MALME-3M melanoma
A498 renal = system: A498 renal
SK-MEL-2 melanoma = system: SK-MEL-2 melanoma
SR leukemia = system: SR leukemia
BT-549 breast = system: BT-549 breast
MDA-MB-435 = system: MDA-MB-435
SN12C renal = system: SN12C renal
NCI/ADR-RES ovarian = system: NCI/ADR-RES ovarian
PC-3 prostate = system: PC-3 prostate
HCT-116 colon = system: HCT-116 colon
UACC-257 melanoma = system: UACC-257 melanoma
UO-31 renal = system: UO-31 renal
MCF7 breast = system: MCF7 breast
COLO 205 colon = system: COLO 205 colon
SK-OV-3 ovarian = system: SK-OV-3 ovarian
SF-539 CNS = system: SF-539 CNS
RPMI-8226 leukemia = system: RPMI-8226 leukemia

Cc1ccc(S(=O)(=O)NC(C(=O)O)C(C)C)cc1 (stereo unspecified)
TGI (LOX IMVI melanoma): > 100 µM
TGI (NCI-H23 lung): > 100 µM
TGI (IGROV1 ovarian): > 100 µM
TGI (MOLT-4 leukemia): > 100 µM
TGI (HS 578T breast): > 100 µM
TGI (ACHN renal): > 100 µM
TGI (M14 melanoma): > 100 µM
TGI (KM12 colon): > 100 µM
TGI (TK-10 renal): > 100 µM
TGI (SNB-75 CNS): > 100 µM
TGI (NCI-H460 lung): > 100 µM
TGI (CAKI-1 renal): > 100 µM
TGI (SF-295 CNS): > 100 µM
TGI (OVCAR-3 ovarian): > 100 µM
TGI (SNB-19 CNS): > 100 µM
TGI (NCI-H226 lung): > 100 µM
TGI (K-562 leukemia): > 100 µM
TGI (SK-MEL-28 melanoma): > 100 µM
TGI (SK-MEL-5 melanoma): > 100 µM
TGI (OVCAR-5 ovarian): > 100 µM
TGI (SF-268 CNS): > 100 µM
TGI (MDA-MB-231 breast): > 100 µM
TGI (786-0 renal): > 100 µM
TGI (U251 CNS): > 100 µM
TGI (UACC-62 melanoma): > 100 µM
TGI (HOP-92 NSCLC): > 100 µM
TGI (OVCAR-8 ovarian): > 100 µM
TGI (MDA-N): > 100 µM
TGI (EKVX NSCLC): > 100 µM
TGI (RXF 393 renal): > 100 µM
TGI (OVCAR-4 ovarian): > 100 µM
TGI (T-47D breast): > 100 µM
TGI (HOP-62 NSCLC): > 100 µM
TGI (DU-145 prostate): > 100 µM
TGI (HT29 colon): > 100 µM
TGI (SW-620 colon): > 100 µM
TGI (NCI-H522 lung): > 100 µM
TGI (HCC-2998 colon): > 100 µM
TGI (CCRF-CEM leukemia): > 100 µM
TGI (HCT-15 colon): > 100 µM
TGI (A549 NSCLC): > 100 µM
TGI (MALME-3M melanoma): > 100 µM
TGI (A498 renal): > 100 µM
TGI (SK-MEL-2 melanoma): > 100 µM
TGI (SR leukemia): > 100 µM
TGI (BT-549 breast): > 100 µM
TGI (MDA-MB-435): > 100 µM
TGI (SN12C renal): > 100 µM
TGI (NCI/ADR-RES ovarian): > 100 µM
TGI (PC-3 prostate): > 100 µM
TGI (HCT-116 colon): > 100 µM
TGI (UACC-257 melanoma): > 100 µM
TGI (UO-31 renal): > 100 µM

COC(=O)/C1=C/c2c([nH]c3ccccc23)/C(C(=O)OC)=C\c2c1[nH]c1ccccc21
TGI (MCF7 breast): > 50 µM
TGI (LOX IMVI melanoma): > 50 µM
TGI (NCI-H23 lung): > 50 µM
TGI (IGROV1 ovarian): 38.9 µM
TGI (HS 578T breast): > 50 µM
TGI (ACHN renal): > 50 µM
TGI (M14 melanoma): > 50 µM
TGI (KM12 colon): > 50 µM
TGI (TK-10 renal): > 50 µM
TGI (NCI-H460 lung): > 50 µM
TGI (CAKI-1 renal): > 50 µM
TGI (SF-295 CNS): > 50 µM
TGI (OVCAR-3 ovarian): > 50 µM
TGI (SNB-19 CNS): > 50 µM
TGI (NCI-H226 lung): > 50 µM
TGI (SK-MEL-5 melanoma): > 50 µM
TGI (OVCAR-5 ovarian): > 50 µM
TGI (SF-268 CNS): > 50 µM
TGI (MDA-MB-231 breast): > 50 µM
TGI (COLO 205 colon): > 50 µM
TGI (786-0 renal): > 50 µM
TGI (U251 CNS): > 50 µM
TGI (UACC-62 melanoma): > 50 µM
TGI (OVCAR-8 ovarian): > 50 µM
TGI (MDA-N): > 50 µM
TGI (EKVX NSCLC): > 50 µM
TGI (RXF 393 renal): 33.3 µM
TGI (SK-OV-3 ovarian): > 50 µM
TGI (T-47D breast): > 50 µM
TGI (HOP-62 NSCLC): > 50 µM
TGI (DU-145 prostate): > 50 µM
TGI (SW-620 colon): > 50 µM
TGI (NCI-H522 lung): 22 µM
TGI (HCT-15 colon): > 50 µM
TGI (A549 NSCLC): > 50 µM
TGI (MALME-3M melanoma): > 50 µM
TGI (A498 renal): > 50 µM
TGI (SK-MEL-2 melanoma): > 50 µM
TGI (BT-549 breast): > 50 µM
TGI (MDA-MB-435): > 50 µM
TGI (SN12C renal): > 50 µM
TGI (SF-539 CNS): > 50 µM
TGI (NCI/ADR-RES ovarian): > 50 µM
TGI (HCT-116 colon): > 50 µM
TGI (UACC-257 melanoma): > 50 µM
TGI (UO-31 renal): > 50 µM

NS(=O)(=O)c1nnc(NS(=O)(=O)c2ccc(F)cc2)s1
TGI (MCF7 breast): > 100 µM
TGI (LOX IMVI melanoma): > 100 µM
TGI (NCI-H23 lung): > 100 µM
TGI (MOLT-4 leukemia): > 100 µM
TGI (HS 578T breast): > 100 µM
TGI (ACHN renal): > 100 µM
TGI (M14 melanoma): > 100 µM
TGI (KM12 colon): > 100 µM
TGI (TK-10 renal): > 100 µM
TGI (NCI-H460 lung): > 100 µM
TGI (CAKI-1 renal): > 100 µM
TGI (SF-295 CNS): > 100 µM
TGI (OVCAR-3 ovarian): > 100 µM
TGI (SNB-19 CNS): > 100 µM
TGI (NCI-H226 lung): > 100 µM
TGI (K-562 leukemia): > 100 µM
TGI (SK-MEL-28 melanoma): > 100 µM
TGI (SK-MEL-5 melanoma): > 100 µM
TGI (OVCAR-5 ovarian): > 100 µM
TGI (SF-268 CNS): > 100 µM
TGI (MDA-MB-231 breast): > 100 µM
TGI (COLO 205 colon): > 100 µM
TGI (786-0 renal): > 100 µM
TGI (U251 CNS): > 100 µM
TGI (UACC-62 melanoma): > 100 µM
TGI (HOP-92 NSCLC): > 100 µM
TGI (OVCAR-8 ovarian): > 100 µM
TGI (MDA-N): > 100 µM
TGI (EKVX NSCLC): > 100 µM
TGI (RXF 393 renal): > 100 µM
TGI (SK-OV-3 ovarian): > 100 µM
TGI (OVCAR-4 ovarian): > 100 µM
TGI (T-47D breast): > 100 µM
TGI (HOP-62 NSCLC): > 100 µM
TGI (DU-145 prostate): > 100 µM
TGI (SW-620 colon): > 100 µM
TGI (HCC-2998 colon): > 100 µM
TGI (CCRF-CEM leukemia): > 100 µM
TGI (HCT-15 colon): > 100 µM
TGI (A549 NSCLC): > 100 µM
TGI (A498 renal): > 100 µM
TGI (SK-MEL-2 melanoma): > 100 µM
TGI (SR leukemia): > 100 µM
TGI (BT-549 breast): > 100 µM
TGI (MDA-MB-435): > 100 µM
TGI (SN12C renal): > 100 µM
TGI (SF-539 CNS): > 100 µM
TGI (NCI/ADR-RES ovarian): > 100 µM
TGI (HCT-116 colon): > 100 µM
TGI (RPMI-8226 leukemia): > 100 µM
TGI (UACC-257 melanoma): > 100 µM
TGI (UO-31 renal): > 100 µM
